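Cultured in 96-well plates, cells were exposed to test compound for 48 hours across five concentrations. At the TGI there is no net growth.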
Key:
Experiment in all cases: growth of human tumour cells (NCI), 48 h
[1] = tested on: DU-145 prostate
[2] = tested on: HL-60(TB) leukemia
[3] = tested on: RXF 393 renal
[4] = tested on: HS 578T breast
[5] = tested on: SNB-19 CNS
[6] = tested on: HOP-92 NSCLC
[7] = tested on: CAKI-1 renal
[8] = tested on: SK-MEL-28 melanoma
[9] = tested on: RPMI-8226 leukemia
[10] = tested on: COLO 205 colon
[11] = tested on: OVCAR-4 ovarian
[12] = tested on: SW-620 colon
[13] = tested on: UO-31 renal
[14] = tested on: A498 renal
[15] = tested on: NCI-H23 lung
[16] = tested on: SK-MEL-5 melanoma
[17] = tested on: KM12 colon
[18] = tested on: K-562 leukemia
[19] = tested on: MOLT-4 leukemia

| SMILES | TGI [1] [µM] | TGI [2] [µM] | TGI [3] [µM] | TGI [4] [µM] | TGI [5] [µM] | TGI [6] [µM] | TGI [7] [µM] | TGI [8] [µM] | TGI [9] [µM] | TGI [10] [µM] | TGI [11] [µM] | TGI [12] [µM] | TGI [13] [µM] | TGI [14] [µM] | TGI [15] [µM] | TGI [16] [µM] | TGI [17] [µM] | TGI [18] [µM] | TGI [19] [µM] |
| --- | --- | --- | --- | --- | --- | --- | --- | --- | --- | --- | --- | --- | --- | --- | --- | --- | --- | --- | --- |
| O=S(=O)(O)CCCC1S(=O)(=O)OCCOS1(=O)=O | > 100 | > 100 | > 100 | > 100 | > 100 | > 100 | > 100 | > 100 | > 100 | > 100 | > 100 | > 100 | > 100 | > 100 | > 100 | > 100 | > 100 |  |  |
| O=S(=O)(N/N=C1\CC2CCC1C2)c1ccccc1 (stereo not given) | > 100 | > 100 |  | > 100 | > 100 | > 100 | > 100 | > 100 | > 100 | > 100 | > 100 | > 100 | > 100 |  | > 100 | > 100 | > 100 | > 100 | > 100 |
| Cc1c(C#N)c2ccccc2c2nc3ccccc3n12 | > 100 | > 100 | > 100 | > 100 | > 100 | > 100 | > 100 | > 100 | > 100 |  | > 100 | > 100 | > 100 | > 100 |  | 36.5 | > 100 | > 100 | > 100 |
| O=Cc1c2ccccc2n2ccc3c4ccccc4[nH]c3c12 | > 10 | > 10 | > 10 | > 10 | > 10 | > 10 | > 10 |  | > 10 | > 10 | > 10 | > 10 | > 10 |  | > 10 | > 10 | > 10 | > 10 | > 10 |
| O=C1NC(=O)C(CC(C(=O)C(=O)Nc2ccccc2Cl)C(=O)c2ccc3ccccc3c2)C(=O)N1 (stereo not given) | > 100 | > 100 | > 100 | > 100 | > 100 | > 100 | > 100 | > 100 |  | > 100 | > 100 | > 100 | > 100 |  | > 100 | > 100 | > 100 |  | > 100 |
| COc1cc(-c2cc(=O)c3c(OC)c(OC)c(OC)cc3o2)c(OC)c(OC)c1OC | > 75 | 44 | > 75 | > 75 | > 75 | > 75 | > 75 | > 75 | > 75 | > 75 | > 75 | > 75 | > 75 |  | > 75 | > 75 | > 75 | > 75 | > 75 |
| CCOc1ccc(Nc2nc3c(s2)C(=O)c2ccccc2C3=O)cc1 | 27.8 | > 100 | 27.6 | > 100 | 30.1 | 27.6 | 20.7 | 36.1 | > 100 | 46 | 21.3 | 15.2 | 28.4 | 29.7 |  | 4.07 | 27.9 | > 100 | > 100 |
| COP(=O)(Cc1ccc(/C=C/C#N)o1)OC | > 100 | > 100 | > 100 | > 100 | > 100 | > 100 |  | > 100 | > 100 | > 100 | > 100 |  |  | > 100 | > 100 |  | > 100 | > 100 | > 100 |
| Cc1cc(NS(=O)(=O)c2ccc(NC(=O)c3ccc4[nH]c5ccccc5c(=O)c4c3)cc2)no1 | > 100 | > 100 | 90.7 | > 100 | > 100 | > 100 | > 100 | > 100 | > 100 | > 100 | > 100 | > 100 | > 100 |  | > 100 | > 100 | > 100 | > 100 | > 100 |
| COc1ccc(NC(=O)CC(=O)N2N=C(c3ccccc3)C(N=Nc3ccc(S(=O)(=O)CCOS(=O)(=O)O)cc3)C2=O)cc1 (stereo not given) | > 100 | > 100 | > 100 | > 100 | > 100 | > 100 | > 100 | > 100 | > 100 | > 100 |  | > 100 | > 100 | > 100 | > 100 | > 100 | > 100 | > 100 | > 100 |
| O=C(NCCCCN(CCCNC(=O)C(F)(F)F)Cc1ccc2ccccc2c1)C(F)(F)F | 56.1 | > 100 | 52.9 | 38.6 | 29 | 67.1 | 28.1 | 31.5 |  | 30.3 | 37.8 | 32.4 | 20.5 | 62.2 | 44.6 | 48.9 | 32.1 | 37 | 49 |
| COc1ccc(N(CN2C(=O)CCC2C(=O)O)C(C)=O)cc1 (stereo not given) | > 100 | > 100 |  | > 100 | > 100 | > 100 | > 100 | > 100 | > 100 | > 100 | > 100 | > 100 | > 100 | > 100 | > 100 | > 100 | > 100 | > 100 | > 100 |
| O=C(c1ccco1)N(Cc1ccco1)C(=S)Nc1ccccc1 | > 100 | 4.61 | 31.9 | 72 | > 100 | 30.3 | 22.1 | 33.8 | 11.7 | 26.8 | 68.1 | 32.2 | 32.8 |  | 38.1 | 35.9 | > 100 | 40.8 | 27.6 |
